# In patent publication US8951789B2, “Mammalian artificial chromosome vector comprising human cytochrome P450 gene (cluster) and non-human mammalian animal retaining the same” (National University Corporation Tottori University, priority 2007, dated 2015):
# What was measured:
# CYP3A/Cyp3a expression = experiment: Induction of CYP3A/Cyp3a expression by PCN, Western blot of liver microsome fractions
# Protocol: In order to investigate the influence of pregnenolone 16α-carbonitrile (PCN) (Sigma), which is known as a substance inducing CYP3A/Cyp3a expression, on CYP3A/Cyp3a gene expression in TC(CYP3A-HACΔ)/Δcyp, Δcyp, and B6 normal mice, PCN was administered intraperitoneally for 4 days in amounts of 100 mg/kg per dose. A suspension of PCN in corn oil (Sigma) was prepared for administration.
# CYP3A/Cyp3a [1] = experiment: Midazolam metabolites in human liver microsomes by LC-MS/MS; conditions: 10 μM midazolam, 37° C. 30 minutes
# Protocol: (§1) In order to investigate whether or not a human-specific metabolite of midazolam, which is known to be metabolized by CYP3A/Cyp3a, is observed in the TC (CYP3A-HACΔ)/Δcyp mouse as in the case of a human, microsomes derived from the liver of the TC(CYP3A-HACΔ)/Δcyp mouse, the Δcyp mouse, the B6 normal mouse, and the human were allowed to react with midazolam, and mass analysis was carried out via LC-MS/MS in the following manner. […] The reaction was terminated with the addition of acetonitrile, the mixture was centrifuged at 3,000 rpm for 5 minutes, and the supernatant was separated. The solvent was removed therefrom by distillation under a nitrogen stream at 40° C., the dried extract was redissolved in acetonitrile, and mass analysis was carried out by LC-MS/MS
# CYP3A/Cyp3a [2] = experiment: Midazolam metabolites in mouse liver microsomes by LC-MS/MS; conditions: 10 μM midazolam
# Protocol: as §1
SMILES,"CYP3A expression level compared with corn oil mice of the same strain (CYP3A/Cyp3a expression; B6 normal mice, 100 mg/kg intraperitoneally for 4 days, liver on day 5)","CYP3A expression (CYP3A/Cyp3a expression; mouse, in vivo, ip, 100 mg/kg)","CYP3A expression level compared with corn oil mice of the same strain (CYP3A/Cyp3a expression; mouse, in vivo, ip, 100 mg/kg)","metabolic activity (triazolam hydroxylation) of liver microsomes, PCN-administered versus corn oil-administered mice (CYP3A4)",human-specific metabolite (10.22) (CYP3A/Cyp3a [1]),"human-specific metabolite (10.22) (CYP3A/Cyp3a [2]; TC(CYP3A-HACΔ)/Δcyp mouse liver microsomes, 37° C. 30 minutes)","main metabolite (10.62) (CYP3A/Cyp3a [2]; all microsomes (TC(CYP3A-HACΔ)/Δcyp, Δcyp, B6 normal mouse, human))"
"CC(=O)[C@H]1[C@H](C#N)C[C@H]2[C@@H]3CC=C4C[C@@H](O)CC[C@]4(C)[C@H]3CC[C@@]21C [PCN, pregnenolone 16α-carbonitrile]",elevated,not observed,elevated,10 times,–,–,–
Cc1ncc2n1-c1ccc(Cl)cc1C(c1ccccc1F)=NC2 [midazolam],–,–,–,–,detected,detected,detected in all microsomes
